Reference: BindingDB's records for doi:10.1016/j.bmc.2010.03.023 (Swedish University Agricultural Sciences, 2010)

How the values were obtained:
Thymidine kinase = molecular target: T1, Thymidine kinase (Ureaplasma parvum serovar 3 (strain ATCC 700970), UniProt Q9PPP5); assay: Inhibition of Ureaplasma parvum thymidine kinase by liquid scintillation counting
T1 sequence (Q9PPP5 whole entry): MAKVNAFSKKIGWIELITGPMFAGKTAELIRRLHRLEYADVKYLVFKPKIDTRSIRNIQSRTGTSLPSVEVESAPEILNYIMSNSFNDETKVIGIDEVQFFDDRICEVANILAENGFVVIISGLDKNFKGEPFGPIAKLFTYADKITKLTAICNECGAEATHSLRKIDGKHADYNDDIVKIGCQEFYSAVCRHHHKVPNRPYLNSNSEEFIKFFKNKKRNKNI

[1] = molecular target: T2, Thymidine kinase, cytosolic (Homo sapiens, UniProt P04183); assay: Inhibition of human TK1 by liquid scintillation counting
T2 sequence (P04183 whole entry): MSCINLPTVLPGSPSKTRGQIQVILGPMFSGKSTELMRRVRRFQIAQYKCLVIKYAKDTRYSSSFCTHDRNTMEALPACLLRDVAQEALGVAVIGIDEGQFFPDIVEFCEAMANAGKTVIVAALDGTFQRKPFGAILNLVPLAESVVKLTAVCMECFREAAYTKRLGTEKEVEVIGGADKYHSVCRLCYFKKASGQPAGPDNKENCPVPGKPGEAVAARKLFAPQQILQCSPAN

Structure (SMILES)	IC50 (Thymidine kinase)	IC50 [1]
Cc1cn([C@H]2C[C@H](n3cc(-c4ccccc4)nn3)[C@@H](CO)O2)c(=O)[nH]c1=O [3'-Deoxy-3'-(4-phenyl-1,2,3-triazol-1-yl)-beta-D-thymidine]	200 µM	–
Cc1cn([C@H]2C[C@H](n3cc(CCc4ccccc4)nn3)[C@@H](CO)O2)c(=O)[nH]c1=O [3'-(4-(2-Phenyl-ethyl)-1,2,3-triazole-1-yl)-2'-deoxythymidine]	120 µM	–
Cc1cn([C@H]2C[C@H](n3cc(-c4ccccn4)nn3)[C@@H](CO)O2)c(=O)[nH]c1=O [3'-Deoxy-3'-(4-pyridin-2-yl-1,2,3-triazol-1-yl)-beta-D-thymidine]	211 µM	–
Cc1cn([C@H]2C[C@H](n3cc(C(C)(C)C)nn3)[C@@H](CO)O2)c(=O)[nH]c1=O [3'-(4-tert-Butyl-1,2,3-triazol-1-yl)-3'-deoxythymidine]	318 µM	114 µM
